Experimental data published in patent publication US10100006B2, “Compound having immune disease treatment effect and use thereof” (THE CATHOLIC UNIVERSITY OF KOREA INDUSTRY—ACADEMIC …, priority 2014, dated 2018).

What was measured:
Total IgG = assay: Autoantibody production, sandwich ELISA: Total IgG; assay type: cell-based, mouse
IL-17 [1] = assay: Production of inflammatory cytokines, ELISA: IL-17, lymphocytes of human peripheral blood; assay type: cell-based; conditions: D: Lymphocytes of human peripheral blood
Method: (§1) Further, in a lupus-developed mouse model, a sanroque mouse used in a lupus model in the art was used and the human P.B group was used by obtaining lymphocytes from the human peripheral blood. The isolation of spleen cells and the isolation of lymphocytes from each mouse and the human peripheral blood were performed by a general method which was widely known in the art and the obtained cells were incubated for 72 h under the anti-CD3 0.5 μg/ml stimulation condition, activated, and then used.
(§2) In order to verify whether the novel compounds of the present invention have an effect on inflammation and the production of inflammatory cytokines as cause substances of the immune diseases, the inventors analyzed the production degree of IL-17, IL-6, TNF-α, IFN-γ, MMP-9, and STAT-3 and the expression degree of mRNA of these cytokines by targeting each test group. The production degree of the inflammatory cytokines was analyzed through an ELISA after obtaining a supernatant by targeting cells which were treated with the compound of the present invention and incubated, and particularly, the cells reacted with cytokine-specific antibodies anti-IL-17, anti-IL-6, anti-TNF-α, anti-IFN-γ, anti-MMP-9, and anti-STAT-3 all night at […] and then non-specific binding was blocked with a blocking solution (1% BSA/PBST). Thereafter, each biotinylated antibody was reacted at room temperature for 2 hrs, washed four times, and then reacted at room temperature for 2 hrs after diluting and adding an extravidin-alkaline phosphatase conjugate. Thereafter, a PNPP/DEA solution was added and colored, and then the absorbance was measured at a wavelength of 405 nm.

IL-17 [2] = assay: Production of inflammatory cytokines, ELISA: IL-17, mouse spleen cells; assay type: cell-based
TNF-a [3] = assay: Inflammatory gene expression, RT-PCR: TNF-a; assay type: cell-based, mouse; conditions: control = 1
IFN-r [4] = assay: Production of inflammatory cytokines, ELISA: IFN-r, lymphocytes of human peripheral blood; assay type: cell-based; conditions: D: Lymphocytes of human peripheral blood
Method: as §1, §2

osteoclasts = assay: Inhibition of differentiation of osteoclasts, TRAP staining; assay type: cell-based, mouse; conditions: M-CSF and RANKL
Th17 cells = assay: Inhibition of Th17 cells, flow cytometry; assay type: cell-based, mouse
IFN-r [5] = assay: Production of inflammatory cytokines, ELISA: IFN-r, mouse spleen cells; assay type: cell-based
[6] = test system: cells in each test group disclosed in Table 3; assay: Cytotoxicity analysis (MTT assay); assay type: cell-based, mouse; human; conditions: treatment for each concentration, 72 hrs; normal cells and disease-group cells; compared with control or metformin-treated group
Method: In order to verify whether the compounds synthesized in the present invention causes the cytotoxicity in the cells, an MTT assay was performed, target cells were divided to be the number of 2×10^5 cells per well on a 96 well plate, treated with the compounds of the present invention for each concentration, incubated for 72 hrs, added with an MTT solution (0.5% 3-4,5-dimethyl thiazol-2-yl)-2,5-diphenyl-2H-tetrazolium bromide), and incubated for 4 hrs again. Thereafter, absorbance at 540 nm was measured by an enzymelinked immunospecific assay (ELISA) meter to observe the cytotoxicity.
In order to verify whether the novel compounds synthesized in Example 1 have the cytotoxicity, a cell survival rate was verified through the MTT assay by targeting cells in each test group disclosed in Table 3 above. That is, the cells of each test group were divided according to the number of 2×10^5 cells per well and treated with the novel synthesized compounds of the present invention for each concentration, and the cell survival rate was analyzed.

IL-6 = assay: Production of inflammatory cytokines, ELISA: IL-6, mouse spleen cells; assay type: cell-based
MMP-9 = assay: Inflammatory gene expression, RT-PCR: MMP-9; assay type: cell-based, mouse; conditions: control = 1
Treg cells = assay: Treg cell-induced activity, flow cytometry; assay type: cell-based, mouse; conditions: TCR condition
IgG1 = assay: Autoantibody production, sandwich ELISA: IgG1; assay type: cell-based, mouse
TNF-a [7] = assay: Production of inflammatory cytokines, ELISA: TNF-a, mouse spleen cells; assay type: cell-based
IgG2 = assay: Autoantibody production, sandwich ELISA: IgG2; assay type: cell-based, mouse
STAT3 = assay: Inflammatory gene expression, RT-PCR: STAT3; assay type: cell-based; conditions: A: Normal mouse cells; control = 1

With `CCN(C(=N)NC(=N)N)c1ccc(F)cc1` [SD-282, N-Ethyl-N-(4-fluorophenyl) biguanide] the “Total IgG” value (Total IgG; A: Normal mouse cells) was 0.7 ng/mL, the “Total IgG” value (Total IgG; B: Rheumatoid arthritis cells) was 60.3 ng/mL and the “Total IgG” value (Total IgG; C: Lupus cells) was 127.7 ng/mL. The IL-17 production (IL-17 [1]) was 0.1 ng/mL, the IL-17 production (IL-17 [2]; A: Normal mouse cells) was 1.7 ng/mL and the IL-17 production (IL-17 [2]; B: Rheumatoid arthritis cells) was 2.1 ng/mL. The IL-17 production (IL-17 [2]; C: Lupus cells) was 0.6 ng/mL, the TNF-a gene expression (TNF-a [3]; A: Normal mouse cells) was 0.07 gene expression and the TNF-a gene expression (TNF-a [3]; B: Rheumatoid arthritis cells) was 0.06 gene expression. For the same compound, the TNF-a gene expression (TNF-a [3]; C: Lupus cells) was 0.8 gene expression, the IFN-r production (IFN-r [4]) was 0.1 ng/mL and the “TRAP + Cell” value (osteoclasts; A: Normal mouse cells) was 157. The “TRAP + Cell” value (osteoclasts; B: Rheumatoid arthritis cells) was 89, the Th17 (Th17 cells; TCR condition, A: Normal mouse cells) was 1.2 and the Th17 (Th17 cells; TCR condition, B: Rheumatoid arthritis cells) was 1.5. It also gave a Th17 (Th17 cells; TCR condition, C: Lupus cells) of 0.9, a Th17 (Th17 cells; Th17 condition (Th17 differentiation condition), A: Normal mouse cells) of 0.5 and an IFN-r production (IFN-r [5]; A: Normal mouse cells) of 3.3 ng/mL. For the same compound, the IFN-r production (IFN-r [5]; B: Rheumatoid arthritis cells) was 2.9 ng/mL, the IFN-r production (IFN-r [5]; C: Lupus cells) was 7.6 ng/mL and the “cytotoxicity (cell survival rate, MTT)” value [6] was “cytotoxicity was not observed”. The IL-6 production (IL-6; A: Normal mouse cells) was 1.3 ng/mL, the IL-6 production (IL-6; B: Rheumatoid arthritis cells) was 1.3 ng/mL and the IL-6 production (IL-6; C: Lupus cells) was 1 ng/mL. For the same compound, the MMP-9 gene expression (MMP-9; A: Normal mouse cells) was 0.1 gene expression, the MMP-9 gene expression (MMP-9; B: Rheumatoid arthritis cells) was 0.08 gene expression and the MMP-9 gene expression (MMP-9; C: Lupus cells) was 1.3 gene expression. For the same compound, the Treg (Treg cells; A: Normal mouse cells) was 2.5, the Treg (Treg cells; B: Rheumatoid arthritis cells) was 4.6 and the Treg (Treg cells; C: Lupus cells) was 2.9. It also gave an IgG1 (IgG1; A: Normal mouse cells) of 1 ng/mL, an IgG1 (IgG1; B: Rheumatoid arthritis cells) of 218.7 ng/mL and an IgG1 (IgG1; C: Lupus cells) of 425.4 ng/mL. It also gave a TNF-a production (TNF-a [7]; A: Normal mouse cells) of 0.4 ng/mL, a TNF-a production (TNF-a [7]; B: Rheumatoid arthritis cells) of 0.4 ng/mL and a TNF-a production (TNF-a [7]; C: Lupus cells) of 0.7 ng/mL. It also gave an IgG2 (IgG2; A: Normal mouse cells) of 37.1 ng/mL, an IgG2 (IgG2; B: Rheumatoid arthritis cells) of 38.3 ng/mL and an IgG2 (IgG2; C: Lupus cells) of 110.9 ng/mL. The STAT3 gene expression (STAT3) was 0.6 gene expression.
